Like-named read-outs stand apart in the source and are kept apart here.
Legend:
human A1 AR = biological target: T1, human A1 AR (Homo sapiens, UniProt P30542); experiment: Radioligand competition binding with 125I-ABA, membranes of CHO K1 cells stably expressing the receptor; conditions: Ki derived from IC50, class symbols
T1 construct: expressed in transfected cells; membranes
T1 sequence (P30542 1-326): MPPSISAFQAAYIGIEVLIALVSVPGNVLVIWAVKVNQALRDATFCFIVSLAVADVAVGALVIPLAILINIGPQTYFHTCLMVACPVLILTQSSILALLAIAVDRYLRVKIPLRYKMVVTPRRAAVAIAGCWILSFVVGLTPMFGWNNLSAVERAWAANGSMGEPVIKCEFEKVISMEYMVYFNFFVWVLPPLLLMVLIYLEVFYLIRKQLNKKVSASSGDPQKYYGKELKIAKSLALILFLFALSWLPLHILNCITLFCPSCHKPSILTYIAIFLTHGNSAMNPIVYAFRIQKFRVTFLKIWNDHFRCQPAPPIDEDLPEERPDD

[1] = biological target: T2, recombinant human A2A receptors (Homo sapiens, UniProt P29274); experiment: Radioligand competition binding with 125I-APE or 125I-ZM241385, Sf9 cell membranes; conditions: 125I-APE or 125I-ZM241385, Sf9 membranes; class symbols
T2 construct: expressed in transfected cells; host or cells: Sf9 insect cells infected with virus; membranes
Procedure: Cell culture and membrane preparation. Sf9 cells were cultured in Grace's medium supplemented with 10% fetal bovine serum, 2.5 μg/ml amphotericin B and 50 μg/ml gentamycin in an atmosphere of 50% N2/50% O2. Viral infection was performed at a density of 2.5×10^6 cells/mL with a multiplicity of infection of two for each virus used. Infected cells were harvested 3 days post-infection and washed twice in insect PBS (PBS pH 6.3). Cells were then resuspended in lysis buffer (20 mM HEPES pH 7.5, 150 mM NaCl, 3 mM MgCl2, 1 mM α-mercaptoethanol (BME), 5 μg/mL leupeptin, 5 μg/mL pepstatin A, 1 μg/mL aprotinin, and 0.1 mM PMSF) and snap frozen for storage at −80° C. Cells were thawed on ice, brought to 30 mL total volume in lysis buffer, and burst by N2 cavitation (600 psi for 20 minutes). A low-speed centrifugation was performed to remove any unlysed cells (1000×g for 10 minutes), followed by a high-speed centrifugation (17,000×g for 30 minutes). The pellet from the final centrifugation was homogenized in buffer containing 20 mM HEPES pH 8, 1100 mM NaCl, 1% glycerol, 2 μg/mL leupeptin, 2 μg/mL pepstatin A, 2 μg/mL Aprotinin, 0.1 mM PMSF, and 10 μM GDP using a small glass homogenizer followed by passage through a 26 gauge needle. Membranes were aliquoted, snap frozen in liquid N2, and stored at −80° C.
Radioligand Binding Assays. […] Binding experiments were performed in triplicate with 5 μg (A2A) or 25 μg (A1 and A3) membrane protein in a total volume of 00.1 mL HE buffer (20 mM HEPES and 1 mM EDTA) with 1 U/mL adenosine deaminase and 5 mM MgCl2 with or without 50 μM GTPγS. Membranes were incubated with radioligands at room temperature for three hours (for agonists) or two hours (for antagonists) in Millipore Multiscreen® 96-well GF/C filter plates and assays were terminated by rapid filtration on a cell harvester (Brandel, Gaithersburg, Md.) followed by 4×150 μl washes over 30 seconds with ice cold 10 mM Tris-HCl, pH 7.4, 10 mM MgCl2. Nonspecific binding was measured in the presence of 50 μM NECA.

human A3 AR = biological target: T3, human A3 AR (Homo sapiens, UniProt P0DMS8); experiment: Radioligand competition binding with 125I-ABA, membranes of HEK 293 cells stably expressing the receptor; conditions: Ki derived from IC50, class symbols
T3 construct: expressed in transfected cells; membranes
T3 sequence (P0DMS8 1-318): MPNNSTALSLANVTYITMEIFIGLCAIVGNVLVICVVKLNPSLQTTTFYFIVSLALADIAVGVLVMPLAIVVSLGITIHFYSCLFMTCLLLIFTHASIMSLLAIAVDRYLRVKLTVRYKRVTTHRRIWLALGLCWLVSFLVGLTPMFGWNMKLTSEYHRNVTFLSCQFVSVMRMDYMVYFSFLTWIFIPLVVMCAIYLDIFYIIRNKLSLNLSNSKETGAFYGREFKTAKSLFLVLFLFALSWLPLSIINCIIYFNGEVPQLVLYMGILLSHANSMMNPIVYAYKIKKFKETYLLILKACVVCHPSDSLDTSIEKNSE
Procedure: Cell culture and membrane preparation. Sf9 cells were cultured in Grace's medium supplemented with 10% fetal bovine serum, 2.5 μg/ml amphotericin B and 50 μg/ml gentamycin in an atmosphere of 50% N2/50% O2. Viral infection was performed at a density of 2.5×10^6 cells/mL with a multiplicity of infection of two for each virus used. Infected cells were harvested 3 days post-infection and washed twice in insect PBS (PBS pH 6.3). Cells were then resuspended in lysis buffer (20 mM HEPES pH 7.5, 150 mM NaCl, 3 mM MgCl2, 1 mM α-mercaptoethanol (BME), 5 μg/mL leupeptin, 5 μg/mL pepstatin A, 1 μg/mL aprotinin, and 0.1 mM PMSF) and snap frozen for storage at −80° C. Cells were thawed on ice, brought to 30 mL total volume in lysis buffer, and burst by N2 cavitation (600 psi for 20 minutes). A low-speed centrifugation was performed to remove any unlysed cells (1000×g for 10 minutes), followed by a high-speed centrifugation (17,000×g for 30 minutes). The pellet from the final centrifugation was homogenized in buffer containing 20 mM HEPES pH 8, 1100 mM NaCl, 1% glycerol, 2 μg/mL leupeptin, 2 μg/mL pepstatin A, 2 μg/mL Aprotinin, 0.1 mM PMSF, and 10 μM GDP using a small glass homogenizer followed by passage through a 26 gauge needle. Membranes were aliquoted, snap frozen in liquid N2, and stored at −80° C. Membranes from cells stably expressing the human A1 AR (CHO K1 cells) or A3 AR (HEK 293 cells) were prepared as described (Robeva et al., 1996).
Radioligand Binding Assays. Radioligand binding to recombinant human A2A receptors in Sf9 cell membranes was performed using either the radiolabeled agonist, ^125I-APE (Luthin et al., 1995) or the radiolabeled antagonist, ^125I-ZM241385 (^125I-ZM). To detect the high affinity, GTPγS-sensitive state of A1 and A3 AR, we used the agonist, ^125I-ABA (Linden et al., 1985; Linden et al., 1993). Binding experiments were performed in triplicate with 5 μg (A2A) or 25 μg (A1 and A3) membrane protein in a total volume of 00.1 mL HE buffer (20 mM HEPES and 1 mM EDTA) with 1 U/mL adenosine deaminase and 5 mM MgCl2 with or without 50 μM GTPγS. Membranes were incubated with radioligands at room temperature for three hours (for agonists) or two hours (for antagonists) in Millipore Multiscreen® 96-well GF/C filter plates and assays were terminated by rapid filtration on a cell harvester (Brandel, Gaithersburg, Md.) followed by 4×150 μl washes over 30 seconds with ice cold 10 mM Tris-HCl, pH 7.4, 10 mM MgCl2. Nonspecific binding was measured in the presence of 50 μM NECA. Competition binding assays were performed as described (Robeva et al., 1996) using 0.5-1 nM ^125I-APE, ^125I-ZM241385, or ^125I-ABA. […] The Ki values for competing compound binding to a single site were derived from IC50 values with correction for radioligand and competing compound depletion as described previously (Linden, 1982).

[2] = tested on: Purified human neutrophils; experiment: Luminol enhanced chemiluminescence (neutrophil oxidative activity), fMLP stimulated; assay type: cell-based; conditions: read-out: Functional
From the text: Chemiluminescence Methods: Luminol enhanced chemiluminescence, a measure of neutrophil oxidative activity, is dependent upon both superoxide production and mobilization of the granule enzyme myeloperoxidase. The light is emitted from unstable high-energy oxygen species such as hypochlorous acid and singlet oxygen generated by activated neutrophils.
Purified human neutrophils (2×10^6/ml) suspended in Hanks balanced salt solution containing 0.1% human serum albumin (HA), adenosine deaminase (1 U/mL) and rolipram (100 nM) were incubated (37 C) in a water bath for 15 min with or without rhTNF (10 U/ml). Following incubation 100 µL aliquots of the PMN were transferred to wells (White walled clear bottom 96 well tissue culture plates Costar #3670; 2 wells/condition) containing […] and luminol (final concentration 100M) with or without adenosine agonist (final agonist concentrations 0.01-1000 nM). The plate was incubated 5 min (37 C) and then fMLP (50 l in HA; final concentration […]) was added to all wells.
Peak chemiluminescence was determined with a Victor 1420 Multilabel Counter in the chemiluminescence mode using the Wallac Workstation software. Data are presented as peak chemiluminescence as percent of activity in the absence of an adenosine agonist. The EC50 was determined using PRISM software. All compounds were tested with PMNs from three separate donors.

T2 sequence (P29274 whole entry): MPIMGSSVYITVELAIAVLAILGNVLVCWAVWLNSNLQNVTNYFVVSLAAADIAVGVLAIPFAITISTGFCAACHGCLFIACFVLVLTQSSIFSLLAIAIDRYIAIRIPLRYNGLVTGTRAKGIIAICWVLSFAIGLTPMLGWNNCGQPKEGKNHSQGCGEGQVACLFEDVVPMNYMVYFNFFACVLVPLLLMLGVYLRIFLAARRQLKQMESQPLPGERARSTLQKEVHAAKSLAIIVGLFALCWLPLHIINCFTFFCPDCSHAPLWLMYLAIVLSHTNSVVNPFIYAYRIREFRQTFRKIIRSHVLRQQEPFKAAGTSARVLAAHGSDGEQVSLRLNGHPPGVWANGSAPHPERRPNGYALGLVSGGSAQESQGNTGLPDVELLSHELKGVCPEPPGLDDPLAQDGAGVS

## CCNC(=O)[C@H]1O[C@@H](n2cnc3c(N)nc(C#CCC4CCN(C(=O)OCc5ccc([N+](=O)[O-])cc5)CC4)nc32)[C@@H](O)C1O (stereo partly shown) [Compound 33, N-Ethyl 2-{3-[1-(4-nitrobenzyloxycarbonyl)-4-piperidinyl]-1-propyn-1-yl}adenosine-5′-uronamide]
Human A1 AR
  Ki: < 100 nM
[1]
  Ki: < 1 nM
Human A3 AR
  Ki: < 10 nM
[2]; Homo sapiens, Neutrophil
  EC50: < 10 nM

## Nc1nc(C#CCC2CCN(C(=O)Oc3ccc(F)cc3)CC2)nc2c1ncn2[C@@H]1O[C@H](C(=O)NC2CC2)C(O)[C@@H]1O (stereo partly shown) [Compound 8, N-Cyclopropyl 2-{3-[1-(4-fluorophenoxycarbonyl)-4-piperidinyl]-1-propyn-1-yl}adenosine-5′-uronamide]
Human A1 AR
  Ki: < 100 nM
[1]
  Ki: < 1 nM
Human A3 AR
  Ki: < 100 nM
[2]; Homo sapiens, Neutrophil
  EC50: < 1 nM

## Cc1ccc(OC(=O)N2CCC(CC#Cc3nc(N)c4ncn([C@@H]5O[C@H](CO)[C@@H](O)[C@H]5O)c4n3)CC2)cc1 [Compound 29, 2-{3-[1-((4-Methyl)phenoxycarbanoyl)piperidin-4-yl]propyn-1-yl}adenosine]
Human A1 AR
  Ki: < 100 nM
[1]
  Ki: < 1 nM
Human A3 AR
  Ki: < 100 nM
[2]; Homo sapiens, Neutrophil
  EC50: < 10 nM

## CCNC(=O)[C@H]1O[C@@H](n2cnc3c(N)nc(C#CCC4CCN(C(=O)Oc5ccc(Cl)c(Cl)c5)CC4)nc32)[C@@H](O)C1O (stereo partly shown) [Compound 49, N-Ethyl 2-{3-[1-(3,4-dichlorophenoxycarbonyl)-4-piperidinyl]-1-propyn-1-yl}adenosine-5′-uronamide]
Human A1 AR
  Ki: < 100 nM
[1]
  Ki: < 1 nM
Human A3 AR
  Ki: < 10 nM
[2]; Homo sapiens, Neutrophil
  EC50: < 1 nM

## Nc1nc(C#CCC2CCN(C(=O)Nc3ccc(Cl)cc3)CC2)nc2c1ncn2[C@@H]1O[C@H](CO)C(O)[C@@H]1O (stereo partly shown) [Compound 45]
Human A1 AR
  Ki: < 100 nM
[1]
  Ki: < 10 nM
Human A3 AR
  Ki: < 100 nM
[2]; Homo sapiens, Neutrophil
  EC50: > 100 nM

## COC(=O)c1ccc(OC(=O)N2CCC(CC#Cc3nc(N)c4ncn([C@@H]5O[C@H](C(=O)NC6CC6)C(O)[C@@H]5O)c4n3)CC2)cc1 (stereo partly shown) [Compound 9, N-Cyclopropyl 2-{3-[1-(4-methoxycarbonylphenoxycarbanoyl)-4-piperidinyl]-1-propyn-1-yl}adenosine-5′-uronamide]
Human A1 AR
  Ki: < 100 nM
[1]
  Ki: < 1 nM
Human A3 AR
  Ki: < 100 nM
[2]; Homo sapiens, Neutrophil
  EC50: < 10 nM

## Nc1nc(C#CCC2CCN(C(=O)OCc3ccc([N+](=O)[O-])cc3)CC2)nc2c1ncn2[C@@H]1O[C@H](CO)[C@@H](O)[C@H]1O [Compound 30, 2-{3-[1-((4-Nitro)benzyloxycarbanoyl)piperidin-4-yl]propyn-1-yl}adenosine]
Human A1 AR
  Ki: < 100 nM
[1]
  Ki: < 10 nM
Human A3 AR
  Ki: < 100 nM
[2]; Homo sapiens, Neutrophil
  EC50: < 10 nM

## Nc1nc(C#CCC2CCN(C(=O)Oc3ccc(Cl)cc3)CC2)nc2c1ncn2[C@@H]1O[C@H](CO)[C@@H](O)[C@H]1O [Compound 27, 2-{3-[1-((4-Chloro)phenoxycarbanoyl)piperidin-4-yl]propyn-1-yl}adenosine]
Human A1 AR
  Ki: < 100 nM
[1]
  Ki: < 1 nM
Human A3 AR
  Ki: < 100 nM
[2]; Homo sapiens, Neutrophil
  EC50: < 10 nM

## Nc1nc(C#CCC2CCN(C(=O)Oc3ccc(Cl)c(Cl)c3)CC2)nc2c1ncn2[C@@H]1O[C@H](C(=O)NC2CC2)C(O)[C@@H]1O (stereo partly shown) [Compound 51, N-Cyclopropyl 2-{3-[1-(3,4-chlorophenoxycarbonyl)-4-piperidinyl]-1-propyn-1-yl}adenosine-5′-uronamide]
Human A1 AR
  Ki: < 100 nM
[1]
  Ki: < 1 nM
Human A3 AR
  Ki: < 100 nM
[2]; Homo sapiens, Neutrophil
  EC50: < 1 nM

## Cc1ccc(OC(=O)N2CCC(CC#Cc3nc(N)c4ncn([C@@H]5O[C@H](CO)[C@@H](O)[C@H]5O)c4n3)CC2)cc1C [Compound 53, 2-{3-[1-((3,4-Dimethyl)phenoxycarbanoyl)piperidin-4-yl]propyn-1-yl}adenosine]
Human A1 AR
  Ki: < 100 nM
[1]
  Ki: < 1 nM
Human A3 AR
  Ki: < 100 nM
[2]; Homo sapiens, Neutrophil
  EC50: < 10 nM

## CCNC(=O)[C@H]1O[C@@H](n2cnc3c(N)nc(C#CCC4CCN(C(=O)Oc5ccc(C)cc5)CC4)nc32)[C@@H](O)C1O (stereo partly shown) [Compound 16, N-Ethyl 2-{3-[1-(4-methylphenoxycarbonyl)-4-piperidinyl]-1-propyn-1-yl}adenosine-5′-uronamide]
Human A1 AR
  Ki: < 100 nM
[1]
  Ki: < 1 nM
Human A3 AR
  Ki: < 10 nM
[2]; Homo sapiens, Neutrophil
  EC50: < 1 nM

## N-Cyclopropyl 2-[3-[1-(4-nitrophenoxycarbonyl) 4-propylpiperidine]}-1-carboxylate]adenosine-5′-uronamide [Compound 40]
Human A3 AR
  Ki: > 100 nM
[2]; EC50 of peak chemiluminescence, human PMN, rolipram 100 nM, fMLP, three donors, class symbols
  EC50: < 100 nM

Reference: patent US7888329B2, “Substituted aryl piperidinylalkynyladenosines as A2AR agonists” (PGxHealth, LLC, priority 2006, dated 2011)
